This is an account of results in patent US9650365B2 (UNIVERSITY OF CONNECTICUT, priority 2014, dated 2017).

One test concerns tube formation in HUVECs. As to the kind of experiment: HUVEC tube formation on Matrigel. The class given is cell-based, human.
For the next test, the system named is HUVEC. The test can be described thus: HUVEC proliferation (MTS). In kind it is cell-based, human. As to conditions: Homo sapiens, HUVEC. The gist of the method: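 HUVECs seeded at 3,000 cells/well, attached overnight, then treated with varying drug concentrations. Proliferation read by MTS/PMS after 72 h.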
The subject of another test is Hh-dependent MB. Particulars: oral administration; cited from earlier work.
Test [1] relates to hedgehog (Hh) signaling pathway. Particulars: background; cited from earlier work.

Read-outs that look alike come from different tables or passages of the source.

In the case of `CCC(C)n1ncn(-c2ccc(N3CCN(c4ccc(OCC5COC(Cn6cncn6)(c6ccc(Cl)cc6Cl)O5)cc4)CC3)cc2)c1=O` (centres unmarked) [ITZ, itraconazole, reference compound], the “inhibition of tube formation” value is given as “significant inhibition” in the test on tube formation in HUVECs (1 μM, 16 h); “significantly inhibited tube formation” with tube formation in HUVECs (0.1 and 1 μM, 24 hour). In addition, the “inhibition of tube formation (overall tube length and total tube junctions)” value in the test on tube formation in HUVECs (10 μM, 16 h) is on record as “comparable to that of the positive control suramin”. Further, the GI50 was found to be 0.4 ± 0.03 µM with HUVEC (72 h, read-out: GI50 (μM) HUVEC, 72 h) and 0.45 µM in the test with HUVEC (read-out: GI50 HUVEC proliferation). Moreover, the results for the IC50 (in the test on HUVEC (read-out: HUVEC Anti-proliferation); in test [1]) were 450 ± 140 nM and 690 nM, respectively. The survival entry in the test with Hh-dependent MB was “increased survival”.
